# From publication PMC3937211, “Serine Carboxypeptidase SCPEP1 and Cathepsin A Play Complementary Roles in Regulation of Vasoconstriction via Inactivation of Endothelin-1” (PLoS Genetics, 2014)
# Tests used:
# [1] = system: mice (arterial blood pressure); experiment: Blood pressure response to intravenous peptide injection, radiotelemetry; type: in vivo, mouse; details: for BP response to i.v. injection: 0.2 nmol/kg i.v.
# Description: This hypothesis was further tested by measuring changes in BP in response to ET-1 and AI, the precursor of vasoconstrictive peptide AII. The changes in the diastolic and systolic BP (ΔDBP and ΔSBP, respectively) were calculated as the differences between the measured BP values and the basal values measured for the 30 min interval preceding the injection. To reduce the impact of the stress on BP caused by animal handling/injection, animals were receiving daily saline injections for 3 days prior to the experiment.
# Figure 3 Mice with combined CathA/Scpep1 deficiency show higher increase in BP in response to systemic injection of ET-1. Sixteen week-old WT, Scpep1^−/−, CathA^S190A and DD male mice kept for two weeks on high-salt diet were intravenously injected with ET-1 solution in saline at a dose of 0.2 nmol/kg (A, B) and 5 nmol/kg (C, D). Changes in the systolic (ΔSBP) or diastolic (ΔDBP) blood pressure were calculated as differences between the means (±S.E) of the BP values recorded within 10 min intervals after the injections and means (±S.E) of the baseline BP values recorded within the 30 min interval before the injections. Two-way repeated measurements ANOVA was used to test differences between the mouse groups: significant differences between the mean BP values in Bonferroni post-test (* p<0.05, ** p<0.001, *** p<0.0001) are shown in the insert. N-value for each genotype is as follows: WT n = 5, DD n = 6, CathA^S190A n = 6, Scpep1 ^−/− n = 7.
# Male CathA^S190A mice and appropriate littermate controls were implanted with TA11PA-C10 radiotelemetry sensors (Data Sciences International) in the left carotid artery for direct measurement of arterial pressure and heart rate as described, [38]. The transmitter was placed subcutaneously along the left flank. For basal measurements of mean day and night BP data were recorded continuously (sampling every hour for 20 sec) within 16 consecutive days and averaged for 12 h light and dark intervals. To measure changes in BP after ET-1 and AI injections data were recorded every 3 min for 2 h and averaged for 10-min consecutive intervals. […]
# [2] = ET-1 degradation rate in mouse blood and tissues (ELISA); type: in vivo; details: tail vein injection, at least 5 mice
# Description: To determine the ET-1 degradation rate we injected mice in the tail vein with an ET-1 solution in saline at a dose of […]. Fifteen minutes after injection mice were sacrificed and their lungs and aorta as well as blood were collected to measure the concentration of ET-1 by ELISA. Endogenous levels of ET-1 were measured in the animals injected with saline.
# Figure 6 Mice with combined CathA/Scpep1 deficiency have reduced ET-1 degradation rate. Blood plasma, lungs and aorta were collected from WT, Scpep1 ^−/−, CathA^S190A and DD mice 15 min post an intravenous injection of saline or ET-1 in saline (10 nmol/kg BW). The levels of ET-1 peptide were measured by ELISA in lung extracts (A), aorta extracts (B), and in blood plasma extracts (C) from mice injected with ET-1 and blood plasma extracts from mice injected with saline (D). Data are expressed as mean values (±S.E). At least 5 mice were studied for each genotype. * p<0.05 in Welch's modification of two-tailed unpaired t-test. […]
# For peptide extraction, tissues (200 mg) were homogenized in 1 mol/L CH3COOH/20 mM HCl. […] Quantitative assay of ET-1 was performed with an ELISA kit (Enzo Life Sciences ADI-900-020A) as described by the manufacturer.
substance,measurement,setting,value
endothelin-1 [ET-1],BP response to i.v. injection,"[1]; DD mice versus other genotypes, high-salt diet",higher response as compared to all other groups of mice
same,BP response to i.v. injection,[1]; WT and Scpep1-deficient mice on high-salt diet,no BP increase
same,time BP remained significantly elevated after injection,"[1]; 5 nmol/kg i.v., DD mice",at least 60 min
same,ET-1 concentration 15 min after injection versus WT or Scpep1-deficient animals,[2]; lungs and aorta of CathA-deficient mice,higher
same,"ET-1 concentration 15 min after injection versus WT, CathA-deficient or Scpep1-deficient mice","[2]; tissues or plasma of DD mice, dose printed 0.1 nmol/kg BW",significantly higher
